Measurements taken from patent publication US20210401809A1, “PHARMACEUTICAL COMPOUNDS” (Sareum Limited, priority 2016, published 2021).

Key:
[1] = PKPD study: plasma and tumour concentrations; format: in vivo, male SCID mice; conditions: MOLT-4 tumour-bearing mice
Procedure: (§1) Male SCID mice were implanted with MOLT-4 tumour cells (1×10^7 in 50% matrigel). When tumours reached approximately 150 mm^3 animals received a single dose of test compound. Animals to be sampled at 24 hrs also received a second dose at 12 hrs.
(§2) At 1, 6 and 24 h animals were sacrificed and plasma prepared. Tumour tissue was removed and divided into 2 sections—one for bioanalysis and the second for homogenisation for western blotting.

[2] = tested on: pSTAT1, pTYK2, cleaved PARP in MOLT-4 tumours; assay: PKPD study: Western blot of tumour tissue; format: in vivo, male SCID mice; conditions: FIG. 6
Procedure: as §1, §2
Tumour tissue was homogenised in lysis buffer supplemented with protease and phosphatase inhibitors. Protein in individual samples was quantified using a commercially available BCA kit.
50 μg total protein was run on a 4-20% pre-cast gel and transferred to PVDF membrane before being incubated with the following antibodies: • pSTAT1 • STAT1 • pTYK2 • TYK2 • Cleaved PARP • B-actin • Anti-rabbit IgG

[3] = tested on: PARP cleavage in MOLT-4 cells; assay: Western blot assay, chronic compound treatment; format: cell-based; conditions: 48 hrs, tested 0.03-3 μM, FIG. 2
Procedure: MOLT-4 cells were treated with Compounds 25 and 29 (of Example 1) and three benchmark inhibitors (GLPG0634 (Filgotinib, developed by Galapagos), TG101209 and GDC-046) as comparative examples at five concentrations (3, 1, 0.3, 0.1 and 0.03 μM), for 48 hrs.
Cell lysates were analysed by Western blot and probed with antibodies against PARP and Actin.
The details of the antibodies used are set out in the table below.
Protocol • Cell were plated in 6-well plates at 4e6 cells per well in 6 ml of media (RPMI+10% FBS) and incubated for at least 1 h at 37° C., 5% CO2. • Cells were treated with the indicated concentrations of compounds for 48 hrs. • Cells were harvested by centrifuging at 12,000 rpm for 1 min (4° C.), washed in ice cold PBS and centrifuged again at 12,000 rpm for 1 min (4° C.). • The supernatant was removed and the cell pellet snap frozen on dry ice. • Cells were lysed in RIPA buffer (with protease and phosphatase inhibitors) and incubated on ice for 30 min. • Cellular debris was pelleted at 13,000 rpm for 5 min at 4° C., supernatant was transferred to a fresh tube. • Protein concentration was estimated using a BCA assay. • 30 μg of protein was loaded onto 4-12% NuPAGE Novex Bis-Tris protein gels (MOPs buffer). • Protein was transferred to a PVDF membrane using dry transfer (iBlot) and western blotting performed against the antigens of interest.

[4] = tested on: MOLT-4 tumours; assay: Efficacy study in mice bearing MOLT-4 tumours (Example 7); format: in vivo, male SCID mice; conditions: 21 days; for effect on MOLT-4 tumour growth: FIG. 7
From the text: MOLT-4 cells (1×10^7 in matrigel) were implanted onto the rear dorsum of male SCID mice using a 25-gauge needle. When tumours reached approximately 100 mm^3 the mice were randomly assigned to the following treatment groups.

[5] = tested on: CCRF-HSB-2 cells (TYK2-dependent T-ALL); assay: Cell proliferation assay (ATPlite, 7 days); format: cell-based; conditions: Homo sapiens, CCRF-HSB-2, 168 h
Procedure: (§3) Jurkat, MOLT-4, CCRF-CEM and CCRF-HSB-2 cells are all TYK2-dependent T-ALL cells. Loucy cells are TYK2-independent T-ALL cell lines. Dexamethasone, Etoposide and Paclitaxel were used as positive controls. Compound effects were studied 7 days after compound addition […] Luminescent product was detected using a BMG FLUOstar plate reader. • The data were analysed using a 4-parameter logistic equation in GraphPad Prism.

[6] = tested on: CCRF-CEM cells (TYK2-dependent T-ALL); assay: Cell proliferation assay (ATPlite, 7 days); format: cell-based; conditions: Homo sapiens, 168 h
Procedure: as §3

[7] = tested on: MOLT-4 cells (TYK2-dependent T-ALL); assay: Cell proliferation assay (ATPlite, 7 days); format: cell-based; conditions: Homo sapiens, MOLT-4, 168 h
Procedure: as §3

[8] = tested on: Loucy cells (TYK2-independent T-ALL); assay: Cell proliferation assay (ATPlite, 7 days); format: cell-based; conditions: 168 h
Procedure: as §3

[9] = tested on: Jurkat cells (TYK2-dependent T-ALL); assay: Cell proliferation assay (ATPlite, 7 days); format: cell-based; conditions: Homo sapiens, 168 h
Procedure: as §3

[10] = target: T1, JAK3 (Homo sapiens, UniProt P52333); assay: In vitro enzyme inhibition, 33P-ATP filter kinase assay (Reaction Biology); format: biochemical
T1 construct: 781-1124; GST (N); purchased Reaction Biology Corp. (contract assay); host or cells: Baculovirus in Sf21 insect cells
T1 sequence (P52333 781-1124): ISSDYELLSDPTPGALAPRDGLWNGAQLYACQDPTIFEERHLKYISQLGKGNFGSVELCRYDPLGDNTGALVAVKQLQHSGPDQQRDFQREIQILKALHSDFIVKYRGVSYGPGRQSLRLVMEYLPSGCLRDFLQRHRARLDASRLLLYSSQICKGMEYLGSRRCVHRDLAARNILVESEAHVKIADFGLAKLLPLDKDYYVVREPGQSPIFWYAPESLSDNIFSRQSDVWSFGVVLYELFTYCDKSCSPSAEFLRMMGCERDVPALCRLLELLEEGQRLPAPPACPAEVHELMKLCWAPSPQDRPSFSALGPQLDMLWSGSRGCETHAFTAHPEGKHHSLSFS
Procedure: (§4) Compounds of the invention were assayed for their ability to inhibit TYK2 kinase and other JAK kinases.
(§5) Substrates and kinases used in the assays are identified in Table 2 below.
(§6) JAK3tide=[Ac-[…]-NH2]

[11] = target: T2, TYK2 kinase (Homo sapiens, UniProt P29597); assay: as above; format: biochemical
T2 construct: 833-1187; GST (N); purchased Reaction Biology Corp. (contract assay); host or cells: Baculovirus in Sf21 insect cells
T2 sequence (P29597 833-1187): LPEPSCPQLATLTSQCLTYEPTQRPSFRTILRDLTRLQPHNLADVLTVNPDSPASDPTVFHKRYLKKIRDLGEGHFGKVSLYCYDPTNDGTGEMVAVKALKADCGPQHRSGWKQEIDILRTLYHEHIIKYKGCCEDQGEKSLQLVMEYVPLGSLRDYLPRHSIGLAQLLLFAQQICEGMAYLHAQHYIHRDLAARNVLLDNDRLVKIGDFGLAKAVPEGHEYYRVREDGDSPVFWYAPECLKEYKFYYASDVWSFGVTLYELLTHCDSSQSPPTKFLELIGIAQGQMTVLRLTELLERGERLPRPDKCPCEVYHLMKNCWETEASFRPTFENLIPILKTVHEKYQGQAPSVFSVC
Procedure: as §4, §5, §6

[12] = target: T3, JAK1 (Homo sapiens, UniProt P23458); assay: as above; format: biochemical
T3 construct: 866-1154; GST (N); purchased Reaction Biology Corp. (contract assay); host or cells: Baculovirus in Sf21 insect cells
T3 sequence (P23458 866-1154): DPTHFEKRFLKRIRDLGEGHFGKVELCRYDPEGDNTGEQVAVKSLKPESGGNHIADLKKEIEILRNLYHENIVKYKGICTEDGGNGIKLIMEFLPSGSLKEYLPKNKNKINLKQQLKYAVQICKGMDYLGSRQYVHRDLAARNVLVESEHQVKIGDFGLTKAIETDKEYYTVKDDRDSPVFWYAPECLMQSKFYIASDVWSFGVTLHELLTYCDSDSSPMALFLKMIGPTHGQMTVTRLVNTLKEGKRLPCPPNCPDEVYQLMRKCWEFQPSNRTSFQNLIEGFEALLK
Procedure: as §4, §5, §6

[13] = tested on: CCRF-HSB-2 tumours; assay: Tumour growth delay study in mice bearing CCRF-HSB-2 tumours (Example 8); format: in vivo, male SCID mice; conditions: for T/C (test versus control) at the end of the study period: 18 days
Procedure: (§7) Dosing solutions were prepared on the day of study.

[14] = Animal bodyweight in MOLT-4 xenograft study (Example 9); format: in vivo, male SCID mice; conditions: 25 and 50 mg/kg BID PO, 21 days
Procedure: (§8) A total of 50 male SCID mice aged 5-7 weeks were used for the study. These were bred in-house at Axis Bioservices. Animals were housed in IVC cages (up to 5 per cage) with individual mice identified by tail mark. All animals were allowed free access to a standard certified commercial diet and sanitised water during the study. The holding room was maintained under standard conditions: 20-24° C., 40-70% humidity and a 12 h light/dark cycle.
(§9) MOLT-4 cells (1×10^7 in matrigel) were implanted onto the rear dorsum of male SCID mice using a 25-gauge needle. When tumours reached approximately 100-150 mm^3 the mice were randomly assigned to the following treatment groups.
as §7
(§10) The formulation for cyclophosphamide was PBS at a dosing volume of 10 ml/kg based on animal weight on day of dosing.
(§11) For combination dosing, both compounds were dosed at the same time.

[15] = tested on: MOLT-4 xenografts; assay: Tumour growth delay study in mice bearing MOLT-4 xenografts (Example 9); format: in vivo, male SCID mice
Procedure: as §8, §9, §7, §10, §11

[16] = 150 mg/kg Q5D IP
Procedure: A total of 40 male SCID mice aged 5-7 weeks were used for the study. These were purchased from Charles River and allowed to acclimatize for 7 days prior to tumour implantation. Animals were housed in IVC cages (up to 5 per cage) with individual mice identified by tail mark. All animals were allowed free access to a standard certified commercial diet and sanitised water during the study. The holding room was maintained under standard conditions: 20-24° C., 40-70% humidity and a 12 h light/dark cycle.
CCRF-HSB-2 cells (5×10^6 in matrigel) were implanted onto the rear dorsum of male SCID mice using a 25-gauge needle. When tumours reached a size of approximately 100-150 mm^3 the mice were randomly assigned to the following treatment groups.
Dosing solutions were prepared on the day of study. Formulation was 0.5% methylcellulose/0.025% Tween-20 at dosing volume of 10 ml/kg based on animal weight on day of dosing. Animals were dosed orally twice daily (12 hours apart) for 18 consecutive days.

[17] = tested on: TYK2-independent cell line (LOUCY); conditions: Sanda et al.; cited from earlier work
[18] = tested on: TYK2 dependent cell lines (T-ALL cells); conditions: Sanda et al.; read-out: IC50 for inhibiting growth of TYK2 dependent cell lines; cited from earlier work

NC(=O)c1nc(-c2c(F)cccc2Cl)oc1Nc1ccc(C(=O)N2CCOCC2)cc1 [Compound 25, 2-(2-chloro-6-fluoro-phenyl)-5-[4-(morpholine-4-carbonyl)-phenylamino]-oxazole-4-carboxylic acid amide]
maximal concentration in plasma ([1]; plasma, single dose, FIG. 4): > 4000 ng/mL
time of maximal exposure in plasma after dosing ([1]; plasma, single dose, FIG. 4): one
maximal concentration in tumour tissue ([1]; tumour tissue, FIG. 5): > 3000 ng per gram of tumour tissue
time of maximal exposure in tumour tissue after dosing ([1]; tumour tissue, FIG. 5): six
level of phosphorylated STAT1 in tumour ([2]; MOLT-4 tumour tissue at 1, 6, 24 h vs vehicle): reduction in level of phosphorylated STAT1 at t=1 h, returning to normal in comparison with vehicle treated controls between 6 and 24 h
cleaved Parp in tumour ([2]; MOLT-4 tumour tissue, relative to vehicle treated controls): An increase in cleaved Parp, relative to vehicle treated controls, was observed between 1 and 24 h
Phosphorylated TYK2 levels in tumour ([2]; MOLT-4 tumour tissue, second dose at 12 hrs): increased at 24 h following the initial dose
concentrations at which cleaved PARP is present (apoptosis) [3]: ≥ 1 µM
T/C (test versus control), tumour volume, end of study ([4]; 25 mg/kg BID per os): 63.5%
T/C (test versus control), tumour weight, end of study ([4]; 25 mg/kg BID per os): 60.7%
effect on MOLT-4 tumour growth ([4]; 25 mg/kg BID per os): slowing growth but not resulting in tumour regression
T/C (test versus control), tumour volume, end of study ([4]; 50 mg/kg BID per os): 27.0%
T/C (test versus control), tumour weight, end of study ([4]; 50 mg/kg BID per os): 24.0%
effect on MOLT-4 tumour growth ([4]; 50 mg/kg BID per os): tumour regression
IC50 [5]: 0.43 µM
IC50 [6]: 0.38 µM
IC50 [7]: 0.27 µM
IC50 [8]: 0.35 µM
IC50 [9]: 0.15 µM
IC50 [10]: 43.2 nM
IC50 [11]: 0.564 nM
IC50 [12]: 28.9 nM

NC(=O)c1nc(-c2c(Cl)cccc2Cl)oc1Nc1ccc(C(=O)N2CCOCC2)cc1 [Compound 29, 2-(2,6-dichloro-phenyl)-5-[4-(morpholine-4-carbonyl)-phenylamino]-oxazole-4-carboxylic acid amide]
T/C (test versus control) at the end of the study period ([13]; 25 mg/kg BID PO): 18.1%
T/C (test versus control) at the end of the study period ([13]; 50 mg/kg BID PO): 10.8%
control of CCRF-HSB-2 tumour growth ([13]; 25 and 50 mg/kg BID PO, similar inhibition at both doses (p=0.6397), FIG. 8): good efficacy in controlling CCRF-HSB-2 tumour growth
tumour weight at Day 18 versus vehicle only ([13]; 25 and 50 mg/kg BID, p<0.0001, FIG. 9): significantly smaller
bodyweight during the study [14]: maintained at pre-treatment levels
concentrations at which cleaved PARP is present (apoptosis) [3]: ≥ 3 µM
T/C (test versus control) at the end of the study period ([15]; 25 mg/kg BID PO, 21 days): 26.8%
T/C (test versus control) at the end of the study period ([15]; 50 mg/kg BID PO, 21 days): 16.6%
IC50 [5]: 1.4 µM
IC50 [6]: 1.8 µM
IC50 [7]: 1.2 µM
IC50 [8]: 1.7 µM
IC50 [9]: 0.6 µM
IC50 [10]: 90.8 nM
IC50 [11]: 0.617 nM
IC50 [12]: 16.8 nM

O=P1(N(CCCl)CCCl)NCCCO1 (stereo not drawn) [cyclophosphamide, reference compound]
T/C (test versus control) at the end of the study period ([13]; 150 mg/kg Q5D IP): 5.9%
T/C (test versus control) at the end of the study period ([15]; 150 mg/kg Q5D IP): 26.2%
animal bodyweight [16]: lost weight this was not significant
T/C (test versus control), tumour volume, end of study ([4]; 150 mg/kg Q5D): 51.7%
T/C (test versus control), tumour weight, end of study ([4]; 150 mg/kg Q5D): 49.0%

JAK Inhibitor I
sensitivity of TYK2-independent cell line (LOUCY) [17]: insensitive
IC50 [18]: 1000 to 3000 nM
